Laboratory results published in publication PMC9519446, “Discovery of an Orally Active Benzoxaborole Prodrug Effective in the Treatment of Chagas Disease in Non-human Primates” (Nature microbiology, 2022).

Tests used:
[1] = test system: T. cruzi of diverse genetic types (DTUs); assay: In vitro susceptibility of T. cruzi strains of diverse genetic types (DTUs); type: cell-based; conditions: Trypanosoma cruzi
Method: C57BL/6J mice were purchased from The Jackson Laboratory (Bar Harbor, ME), and B6.129S7-Ifngtm1Ts/J (IFN-gamma deficient) were bred in-house at the University of Georgia Animal Facility. The SKH-1 “hairless” mice backcrossed to C57BL/6 were a gift from Dr. Lisa DeLouise (University of Rochester). All the animals were maintained in the University of Georgia Animal Facility under specific pathogen–free conditions at 22°C, 50% humidity and in a 12:12 hs light:dark cycle. Male and female mice of 6 to 9 weeks of age were used. All mouse experiments were carried out in strict accordance with the Public Health Service Policy on Humane Care and Use of Laboratory Animals and Association for Assessment and Accreditation of Laboratory Animal Care accreditation guidelines. The protocol was approved by the University of Georgia Institutional Animal Care and Use Committee. […] Parasites genotypes were determined as previously described.
The in vitro anti-T. cruzi amastiogote activity assay was performed and optimized based on the protocol described previously. The change in tdTomato fluorescence intensity was determined as a measurement of growth over 72 hours of culture. For assaying drug effects on extracellular amastigotes, trypomastigotes were collected from infected Vero cell cultures and converted in acidic media as previously described. Amastigotes (50,000/well) were incubated with 2-fold serial dilutions of compounds for 48 hours. The ATP production was used as an indication of growth in this case, and was measured by ATPlite Luminescence ATP Detection Assay System (PerkinElmer). Both fluorescence and luminescence were read using a BioTek Synergy Hybrid Multi-Mode reader equipped with the software Gene5 v 2.0 (BioTek). The dose-response curve was generated by […] analysis with GraphPad Prism v9.4.0 (GraphPad Software).

[2] = test system: T. cruzi CL strain in Vero cells; assay: RNA-seq: parasite mRNA relative to host cell (Vero) mRNA; type: cell-based, Trypanosoma cruzi
Method: The drug concentration used for treatment was set at 5 times the IC50. Samples were collected at several time points for RNA extraction as previously described. rRNA-depleted RNA library construction and RNA sequencing using Illumina Nextseq 75PE was carried out by Georgia Genomics and Bioinformatics Core (GGBC, University of Georgia, Georgia). […] The mapping rate was quantified by HTseq v0.6.1 [51].

Cc1c(C(=O)NC(C(=O)OCc2ccc(F)c(F)c2)C(C)C)ccc2c1B(O)OC2 (centres unmarked) [AN14353]
IC50 ([1]; Strain 20290, DTU TcI): 3 nM
IC90 ([1]; Strain 20290, DTU TcI): 5 nM
IC50 ([1]; Strain 20392, DTU TcIV): 5 nM
IC90 ([1]; Strain 20392, DTU TcIV): 10 nM
IC50 ([1]; Strain ARC0704, DTU TcI): 3 nM
IC90 ([1]; Strain ARC0704, DTU TcI): 7 nM
IC50 ([1]; Strain CL, DTU TcVI): 6 nM
IC90 ([1]; Strain CL, DTU TcVI): 18 nM
IC50 ([1]; Strain Colombiana, DTU TcI): 7 nM
IC90 ([1]; Strain Colombiana, DTU TcI): 10 nM
IC50 ([1]; Strain M5631, DTU TcIII): 1 nM
IC90 ([1]; Strain M5631, DTU TcIII): 3 nM
IC50 ([1]; Strain Montalvania, DTU TcI): 1 nM
IC90 ([1]; Strain Montalvania, DTU TcI): 2 nM
IC50 ([1]; Strain Tul8, DTU TcII): 1 nM
IC90 ([1]; Strain Tul8, DTU TcII): 2 nM
RNA-seq reads mapped to African green monkey ([2]; 0hpt): 60
RNA-seq reads mapped to T.cruzi CL Brener ([2]; 0hpt): 14
RNA-seq reads unmapped ([2]; 0hpt): 26
RNA-seq reads mapped to African green monkey ([2]; 6hpt): 63
RNA-seq reads mapped to T.cruzi CL Brener ([2]; 6hpt): 5
RNA-seq reads unmapped ([2]; 6hpt): 32
RNA-seq reads mapped to African green monkey ([2]; 12hpt): 62
RNA-seq reads mapped to T.cruzi CL Brener ([2]; 12hpt): 2
RNA-seq reads unmapped ([2]; 12hpt): 35
RNA-seq reads mapped to African green monkey ([2]; 24hpt): 77
RNA-seq reads mapped to T.cruzi CL Brener ([2]; 24hpt): 1
RNA-seq reads unmapped ([2]; 24hpt): 22
parasite mRNA relative to host cell mRNA ([2]; T. cruzi-infected Vero cells, 30 nM AN14353 or 5 uM benznidazole, from 6 hrs): marked and continuing reduction in parasite mRNA
